Experimental findings from patent US12611405B2, “Agent that increases the expression of the BCL2-associated agonist of cell death for the treatment of cancer” (LDN Pharma Limited, priority 2017, dated 2026) are described below.

SMILES strings stand for the structures.

Holding throughout (format): cell-based
In data set [1] the test system is MCF-7 cells. As to the kind of experiment: 6BN given concomitantly with gemcitabine or oxaliplatin, cell number and viability by trypan blue dye exclusion. To be noted: 10 uM 6BN concomitantly with gemcitabine (0.5 uM) or oxaliplatin (0.5 uM), 48 h. Here is the method:
The effect of combining 6BN with the chemotherapeutic agents gemcitabine or oxaliplatin was tested by culturing MCF-7 cells with 6BN (10 nM or 10 uM) concomitantly with gemcitabine (0.5 uM) or oxaliplatin (0.5 uM). Cell number and viability was then assessed after 48 h using trypan blue dye exclusion as a means to discriminate live/dead cells.

Data set [2] concerns BAD expression in HCT116 colon cancer cells. As to the kind of experiment: Level of expression of BAD after 48 h culture, immunoblotting. How it is done: In order to determine the effect of 6-β-naltrexol or naltrexone on the level of expression of BAD, pAKT, p21, cyclin B1 and CDK1 HCT116 colon cancer cells were seeded onto 6-well plates at a density of 2×10^5 cell/well, and allowed to adhere overnight. Cells were then cultured in the presence of naltrexone or 6-β-naltrexol at concentrations of 10 nM or 10 μM for a further 48 h. Cells were then harvested and processed for measurements of BAD, or pAKT, p21, cyclin B1 and CDK1 using standard immunoblotting techniques.
A general note: Immunoblotting shows a protein as a band on a membrane.

Data set [3] deals with A549 cells. Kind of data set: Two-phase priming with 6-β-naltrexol then GEM or OXP, cell number and viability by trypan blue counting. How it is done:
(§1) The impact of combining 6-β-naltrexol with other chemotherapy agents was tested by culturing cells according to a treatment schedule that involved two phases of treatment. The first phase involved priming with 10 nM 6-β-naltrexol or 10 μM 6-β-naltrexol for 48 h, before treatment with another drug for a further 48 h. A549 and HCT116 cells were seeded into 6-well plates at a density of 2×10^5 cells/well and left to adhere overnight. Media was removed after 48 h, and cells were rinsed gently with drug-free medium. Fresh culture medium that contained gemcitabine (GEM) or oxaliplatin (OXP) was then added to the cells. The concentrations of the chemotherapy agents used were approximately ¼ IC50, as established previously [Liu W M, Fowler D W, Smith P, Dalgleish A G. Pre-treatment with chemotherapy can enhance the antigenicity and immunogenicity of tumours by promoting adaptive immune responses. Br J Cancer. 2010 Jan. 5; 102(1):115-23. doi: 10.1038/sj.bjc.6605465.]. Cells were then left for a further 48 h before assessment of cell number of viability by cell counting using trypan blue dye as a way of discriminating live and dead cells. Cytostasis was indicated by a reduction in cell number and no associated reduction in cell viability.

The subject of data set [4] is HCT116 cells. The description is as above. How it is done: as §1
The subject of data set [5] is BAD expression in breast cancer cell line MCF-7. As to the kind of experiment: BAD protein expression by western blotting. Conditions: MCF-7, different concentrations of 6BN (FIG. 3).
The mark [6] stands for this setting: 6-β-naltrexol priming 48 h in an amount raising BAD by at least 10%, then GEM or OXP at approx. ¼ IC50 for 48 h.

As for `Oc1ccc2c3c1OC1[C@H](O)CC[C@@]4(O)[C@@H](C2)N(CC2CC2)CC[C@]314` (stereo partly drawn) [6-β-naltrexol, 17-(Cyclopropylmethyl)-4,5-epoxymorphinan-3,6 beta,14-triol], the “effect on cell viability of the combination with chemotherapy” value in data set [1] was “greatest effect on cell viability”. Besides, the “effect on the level of expression of BAD” value in data set [2] (10 nM) is recorded as “negligible effect”. Moreover, the “increase in the level of expression of BAD” value in data set [2] (10 μM) was “more than 10%”. Moreover, the “cytotoxicity of 6-β-naltrexol alone” value is listed as “absence of any independent increase in cytotoxicity” in data set [3] (10 nM or 10 μM 6BN, no chemotherapeutic agent (FIG. 2c)) and “absence of any independent increase in cytotoxicity” in data set [4] (10 nM or 10 μM 6BN, no chemotherapeutic agent (FIG. 2d)). Moreover, the “cytotoxic effect of both chemotherapeutic agents (GEM, OXP) after priming” value in data set [3] (setting [6]) and in data set [4] (setting [6]) was “increased” each time. In data set [5], the “expression of the pro-apoptotic protein BAD” value is “dose dependent increase”.
Regarding `O=C1CC[C@@]2(O)[C@H]3Cc4ccc(O)c5c4[C@@]2(CCN3CC2CC2)[C@H]1O5` [naltrexone, reference compound], the “effect on the level of expression of BAD” value in data set [2] (10 nM) and in data set [2] (10 μM) was “negligible effect” each time.
